Data on one compound can be found in patent publication US8518953B2, “Aminopyrimidines useful as inhibitors of protein kinases” (Vertex Pharmaceuticals Incorporated, priority 2007, dated 2013).

For experiment [1], the system named is rats subjected to MCAO. The experiment in a line: Post Stroke Recovery MCAO Model: Gridwalk. Format: in vivo, rat. The note with it: 7 and 14 days after stroke. From the text: Adult male Wistar rats are pre-trained on a battery of behavioral tests including: tray reach, […], forelimb asymmetry (cylinder bracing), forelimb inhibition (swim test) (see below for detailed description of tests). Following pre-stroke behavioral assessment the rats receive surgery during which a stroke is induced. The rats are pseudo-randomly divided into 5 equal groups (n=12) ensuring an equal number of right and left strokes within each treatment group. The first group receives sham surgery with vehicle as treatment. Administration of the test compound and vehicle (dose, route, timing) is determined by the sponsor. The core body temperature is maintained at 37° C. (+/-1°). Following surgery all animals are behaviorally assessed 1, 7, and 14 d post-stroke. At the conclusion of behavioral assessment all rats undergo an MRI to determine infarct volume. […] Rectal temperature is monitored and maintained at 37 C+/-1° C. for the duration of the surgery and until the rat is awake and mobile (approximately 3 hr). […] Forelimb and hindlimb coordination are measured using an apparatus that consists of two Plexiglas panels 1 m long and 25 cm wide (5 mm thick) with holes drilled 1 cm apart along one long edge. […]

In experiment [2] the test system is CRMP2. Nature of the experiment: CRMP2 phosphorylation assay. It is filed as cell-based, rat. The note with it: E16 hippocampal neurons treated for 7 days. The protocol: GSK-3 phosphorylation regulates CRMP2 which is involved in the control of axon outgrowth and branching (Yoshimura et al. 2005 Cell, Kim et al. 2006 Neuron). Phosphorylation of CRMP2 by GSK-3 reduces CRMP2 binding to microtubules and thereby reduces axon elongation and branching. Conversely, inhibition of GSK-3, especially at levels that selectively affect TYR residue autophosphorylation, enhances these phenotypes. Compounds are tested in E16 rat hippocampal or cortical neurons to determine the ability to increase the level of axonal branching. 1 mg/ml stock of PDL is diluted into 100 μg/ml in DI water. The glass coverslips are coated for at least 1 hour at 37° C. prior to doing the dissection. PDL is aspirated and the plates are rinsed with PBS and air-dried in hood. Cortical or hippocampal lobes are combined with 9 mL of Base media (Neurobasal+Pen/Strep) and put on ice. 1 mL of 10× trypsin solution is added and the mixture is swirled gently. The tissue is then digested via incubation in a 37° C. waterbath for 20 minutes. After 20 minutes, 10 μl/ml DNase (100 μL DNase) is added and the mixture is incubated for another 5 minutes. The cells are spun at 1000 rpm for 1 minute. The enzyme solution is then removed without removing any of the brain fragments sitting on the bottom. […] The cells are counted in a hemacytometer and seeded at 50,000 cells/well in a 12 well plate. […]

On to `Cc1nc(-c2ccccc2Cl)nc(Nc2n[nH]c3ncc(F)cc23)c1C` [Compound I-1, N-(2-(2-chlorophenyl)-5,6-dimethylpyrimidin-4-yl)-5-fluoro-1H-pyrazolo[3,4-b]pyridin-3-amine], for which, in experiment [1], the deficit in gridwalk result is reported as “significantly ameliorated this deficit”. In experiment [2], the “Inhibition of GSK-3 phosphorylation of substrate CRMP-2” value was “correlated with inhibition of GSK-3 pTYR”.
